We go through twelve molecules from patent EP4722211A1, “FGFR2/3 SELECTIVE INHIBITOR, PHARMACEUTICAL COMPOSITION AND USE THEREOF” (Changchun Genescience Pharmaceutical Co., Ltd., priority 2023, dated 2024).

Series [1] is described as follows: Pharmacokinetic study in SD rats after oral gavage, plasma by LC/MS/MS. The series is classed as in vivo. As to conditions: rat, 2 mg/kg, 2mpk; for AUC(0-inf): read-out: AUCINF_pred; for MRT inf: read-out: MRTINF_pred. The method, then:
The SD rats were used as test animals. The drug concentration in plasma at different time points was determined by LC/MS/MS method after the compound of the present invention was administered to the SD rats by oral gavage. The pharmacokinetic behavior of the compound of the present invention in SD rats was studied and the pharmacokinetic characteristics were evaluated.
24 SD Rat rats (female:male 1:1), purchased from Shanghai Ji Hui Laboratory Animal Breeding Co., Ltd., animal production license SCXK (Shanghai) 2017-0012, were divided into 6 groups.
The prescription was 5% DMSO + 60% PEG300 + 35% glucose aqueous solution. A proper amount of the representative compound of the present invention (converted according to the purity and salt coefficient) was weighed. A prescribed amount of DMSO was added, and a clear and transparent solution was obtained by vortex. Then a prescribed amount of PEG300 was added, and mixed by vortex. Then, a prescribed amount of a glucose aqueous solution was added. A 0.6 mg/mL or 2 mg/mL solution was obtained. During the preparation, if a solution cannot be obtained, ultrasonication in a water bath at a temperature not higher than 60°C can be performed to facilitate the dissolution.
Rats were administered by oral gavage (2mpk) after fasting for one night.
At 15 min, 30 min, 1 hr, 2 hrs, 4 hrs, 6 hrs, 8 hrs, and 24 hrs after administration, about 30 µL blood samples were collected into an anticoagulation tube containing the anticoagulant EDTA-K2, and centrifuged within 30 minutes to obtain the plasma. The whole blood sample was placed on wet ice before centrifugation. All of the collected plasma samples were stored on dry ice or at a temperature not higher than -70°C before analysis and detection. Liquid chromatography-tandem mass spectrometry (LC/MS/MS) was used to determine the original drug concentration in the plasma and the administered solution.

The subject of series [2] is Ba/F3-FGFR3 cells. As to the kind of experiment: Cell proliferation inhibition, CTG method (Ba/F3-FGFR3). Format: cell-based. The following applies: 72 hrs. The protocol: (§1) The CTG method was used to detect the inhibitory effect of the compound on the proliferation of Ba/F3-FGFR1, Ba/F3-FGFR2, Ba/F3-FGFR3, and Ba/F3-FGFR4 cells. The highest concentration tested was 3000 nM, which was three-fold diluted to give 10 concentrations. The test was duplicated.
• a) Ba/F3-FGFR1, Ba/F3-FGFR2, Ba/F3-FGFR3, and Ba/F3-FGFR4 were cultured to exponential growth period for later use. Complete medium: RPMI1640 medium, 10% FBS, 1% GlutaMAX and P/S, 10 ng/mL FGF1, 10 µg/mL Heparin,10 µM 2-mercaptoethanol, 2 µg/mL puromycin. • b) The stock solution of the compound of 3000 nM was diluted into a 384 cell culture plate using the ECHO liquid handling station, and centrifuged at 1000 g for 1 min. • c) The cells were digested. 30 µL of Ba/F3-FGFR1, Ba/F3-FGFR2, Ba/F3-FGFR3, or Ba/F3-FGFR4 (500/well) was uniformly seeded in a 384-well black-edge cell culture plate containing the compound, having the wells at the edge blocked with 50 µL PBS, and cultured in an incubator with CO2 at 37°C for 72 hrs. • d) 30 µL of Cell-Titer-Glo reagent was added to each well, shaken and mixed evenly on a shaker, and then incubated at 37°C for 30 min. Then the signal was detected on a microplate reader after the signal was stable.

In series [3] the test system is Ba/F3-FGFR2 cells. As to the kind of experiment: Cell proliferation inhibition, CTG method (Ba/F3-FGFR2). Format: cell-based. The following applies: 72 hrs. The protocol: as §1
(§2) • a) Ba/F3-FGFR1, Ba/F3-FGFR2, Ba/F3-FGFR3, and Ba/F3-FGFR4 were cultured to exponential growth period for later use. […] 30 µL of Ba/F3-FGFR1, Ba/F3-FGFR2, Ba/F3-FGFR3, or Ba/F3-FGFR4 (500/well) was uniformly seeded in a 384-well black-edge cell culture plate containing the compound, having the wells at the edge blocked with 50 µL PBS, and cultured in an incubator with CO2 at 37°C for 72 hrs. • d) 30 µL of Cell-Titer-Glo reagent was added to each well, shaken and mixed evenly on a shaker, and then incubated at 37°C for 30 min. Then the signal was detected on a microplate reader after the signal was stable.

Series [4] relates to Ba/F3-FGFR4 cells. As to the kind of experiment: Cell proliferation inhibition, CTG method (Ba/F3-FGFR4). The following applies: 72 hrs. The series is classed as cell-based. The protocol:
as §1, §2

For series [5], the system named is Ba/F3-FGFR1 cells. As to the kind of experiment: Cell proliferation inhibition, CTG method (Ba/F3-FGFR1). The series is classed as cell-based. As to conditions: 72 hrs. The method, then: as §1, §2
Series [6] addresses T1, FGFR3 (Homo sapiens, UniProt P22607).
T1 construct: purchased Invitrogen PR4631B
As to the kind of experiment: Kinase inhibitory activity by HTRF method (FGFR3). Format: biochemical. As to conditions: highest concentration 3000 nM, 10 concentrations, duplicate. The method, then:
(§3) The inhibitory activity of the compounds on FGFR1 and FGFR3 kinases was tested by HTRF method. The highest concentration tested was 3000 nM, which was three-fold diluted to give 10 concentrations. The test was duplicated. […]

Series [7] deals with T2, FGFR1 (Homo sapiens, UniProt P11362).
T2 construct: purchased Invitrogen PR4660A
In words: Kinase inhibitory activity by HTRF method (FGFR1). The series is classed as biochemical. As to conditions: highest concentration 3000 nM, 10 concentrations, duplicate. The method, then: as §3
On the technique in general: Time-resolved FRET reads energy transfer from a long-lived donor to a nearby acceptor.

[8] abbreviates: both sexes, Sprague-Dawley (SD).

Read-outs that look alike come from different tables or passages of the source.

The AUC(0-t) is exposure summed from dosing to a finite time, without extrapolation to infinity. Low readings indicate low exposure, high ones high exposure. In general, Cmax refers to the maximum level reached in the sampled fluid or tissue. As usually defined, the Tmax is the time at which the peak concentration occurs. For orientation: half-life means the time in which the quantity being followed falls by half. Low readings indicate rapid decline, high ones slow decline. A word on the IC50: it is the point on the concentration scale where inhibition reaches its midpoint. Read a high IC50 as weaker potency in that assay.

T1 sequence (P22607 23-806): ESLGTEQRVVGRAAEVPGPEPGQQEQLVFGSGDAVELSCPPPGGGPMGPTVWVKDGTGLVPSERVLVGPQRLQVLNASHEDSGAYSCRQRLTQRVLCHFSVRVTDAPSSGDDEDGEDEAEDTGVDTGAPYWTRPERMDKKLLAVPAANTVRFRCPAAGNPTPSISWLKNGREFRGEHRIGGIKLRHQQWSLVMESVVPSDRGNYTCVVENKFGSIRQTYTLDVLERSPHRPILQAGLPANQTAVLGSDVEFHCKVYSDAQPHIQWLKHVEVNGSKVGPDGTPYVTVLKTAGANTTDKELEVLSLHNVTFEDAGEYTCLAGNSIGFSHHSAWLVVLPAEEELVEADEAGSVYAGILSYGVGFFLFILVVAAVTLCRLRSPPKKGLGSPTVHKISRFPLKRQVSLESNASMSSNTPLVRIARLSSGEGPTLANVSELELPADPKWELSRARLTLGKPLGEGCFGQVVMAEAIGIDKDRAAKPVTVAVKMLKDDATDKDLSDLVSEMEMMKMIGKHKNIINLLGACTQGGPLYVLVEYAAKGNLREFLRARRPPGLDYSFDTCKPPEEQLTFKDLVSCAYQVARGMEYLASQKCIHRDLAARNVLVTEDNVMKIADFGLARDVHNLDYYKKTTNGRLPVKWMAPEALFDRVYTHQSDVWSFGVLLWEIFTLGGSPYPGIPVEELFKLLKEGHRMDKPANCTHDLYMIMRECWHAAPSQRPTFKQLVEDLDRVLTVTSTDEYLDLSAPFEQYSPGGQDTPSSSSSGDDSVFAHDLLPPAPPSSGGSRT
T2 sequence (P11362 22-822): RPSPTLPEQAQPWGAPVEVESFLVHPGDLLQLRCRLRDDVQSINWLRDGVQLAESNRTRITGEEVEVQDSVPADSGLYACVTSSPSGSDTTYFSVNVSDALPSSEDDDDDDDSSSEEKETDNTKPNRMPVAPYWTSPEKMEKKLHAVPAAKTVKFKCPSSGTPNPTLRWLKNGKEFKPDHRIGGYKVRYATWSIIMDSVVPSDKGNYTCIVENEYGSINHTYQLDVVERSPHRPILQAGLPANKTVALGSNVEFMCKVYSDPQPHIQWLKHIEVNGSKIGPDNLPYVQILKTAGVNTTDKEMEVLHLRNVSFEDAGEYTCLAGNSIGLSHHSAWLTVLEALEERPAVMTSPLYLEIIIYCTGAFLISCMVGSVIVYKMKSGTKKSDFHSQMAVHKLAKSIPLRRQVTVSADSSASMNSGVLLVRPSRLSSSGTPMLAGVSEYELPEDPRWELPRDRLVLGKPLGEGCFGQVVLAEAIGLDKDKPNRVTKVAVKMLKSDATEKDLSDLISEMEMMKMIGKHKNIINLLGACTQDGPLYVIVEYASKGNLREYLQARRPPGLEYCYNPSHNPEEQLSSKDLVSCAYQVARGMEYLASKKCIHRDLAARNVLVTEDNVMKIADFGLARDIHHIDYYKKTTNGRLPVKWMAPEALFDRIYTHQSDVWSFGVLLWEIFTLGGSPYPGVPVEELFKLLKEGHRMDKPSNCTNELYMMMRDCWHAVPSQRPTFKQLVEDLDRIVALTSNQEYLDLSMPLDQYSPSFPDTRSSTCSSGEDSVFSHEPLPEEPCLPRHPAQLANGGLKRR

In the case of `CCN1CCN(c2ccc(Nc3cc(N(C)C(=O)Nc4c(Cl)c(OC)cc(OC)c4Cl)ncn3)cc2)CC1` [Infigratinib, reference compound], in series [1] (setting [8]), the AUC(0-t) was 103 ng·h/mL, the Cmax was 22.2 ng/mL, the time of peak concentration (Tmax) turned out to be 3 h and the half-life is 1.1 h. In addition, in series [1] (setting [8]), the AUC(0-inf) is 106 ng·h/mL and the MRT inf came to 3.1 h. This molecule returned a half-maximal inhibitory concentration (IC50) in series [2] of 11.9 nM. Half-maximal inhibition in series [3] (IC50) was put at 4 nM. Further, the half-maximal inhibitory concentration (IC50) in series [4] came to 277 nM. In series [5], this molecule showed an IC50 of 8.1 nM.
`Cc1nn(CC(C)(C)O)cc1-c1ncc(-c2n[nH]c3ccc(O[C@H](C)c4c(Cl)cncc4Cl)nc23)cc1F` [Cpd-162A, (R)-1-(4-(5-(5-(1-(3,5-dichloropyridin-4-yl)ethoxy)-1H-pyrazolo[4,3-b]pyridin-3-yl)-3-fluoropyridin-2-yl)-3-methyl-1H-pyrazol-1-yl)-2-methyl-2-propanol]: the IC50 was 4 nM in series [2], 3.6 nM in series [3], 29.8 nM in series [4] and 32.6 nM in series [5].
Taken in the same sequence, the figures for `Cc1nn(CC(C)(C)O)c(C)c1-c1ccc(-c2n[nH]c3ccc(O[C@H](C)c4c(Cl)cncc4Cl)nc23)cn1` [Cpd-158A] were 2.6 nM, 2 nM, 55.4 nM and 23.6 nM.
With `CC(Oc1ccc2[nH]nc(-c3ccc(S(C)(=N)=O)nc3)c2n1)c1c(Cl)cncc1Cl` (single isomer, unassigned) [Cpd-01C, (5-(5-(1-(3,5-dichloropyridin-4-yl)ethoxy)-1H-pyrazolo[4,3-b]pyridin-3-yl)pyridin-2-yl)(imino)(methyl)-λ^6-sulfonyl ketone], the values for the IC50 in series [6] and in series [7] were 4.8 nM and 34.8 nM, respectively.
On to `Cc1cc2[nH]nc(-c3ccc(-c4c(C)nn(CC(C)(C)O)c4C)nc3)c2nc1O[C@H](C)c1c(Cl)cncc1Cl` [Cpd-175A, (R)-1-(4-(5-(5-(1-(3,5-dichloropyridin-4-yl)ethoxy)-6-methyl-1H-pyrazolo[4,3-b]pyridin-3-yl)pyridin-2-yl)-3,5-dimethyl-1H-pyrazol-1-yl)-2-methyl-2-propanol], for which, in series [1] (setting [8]), the AUC(0-t) stood at 359 ng·h/mL, the maximum concentration (Cmax) was 82.6 ng/mL, the Tmax is 2 h and the half-life was 3.2 h. For the same molecule, in series [1] (setting [8]), the AUC(0-inf) came out at 508 ng·h/mL and the MRT inf was 3.5 h. In series [2], this molecule came in with an IC50 of 4.9 nM. For the same molecule, the 50% inhibitory concentration (IC50) in series [3] worked out at 3.5 nM. Besides, half-maximal inhibition in series [4] (IC50) required 72.9 nM. In series [5], this molecule had an IC50 of 31.5 nM.
For the molecule `Cc1nn(C2CC2)cc1-c1ccc(-c2n[nH]c3ccc(O[C@H](C)c4c(Cl)cncc4Cl)nc23)cn1` [Cpd-145A, (R)-3-(6-(1-cyclopropyl-3-methyl-1H-pyrazol-4-yl)pyridin-3-yl)-5-(1-(3,5-dichloropyridin-4-yl)ethoxy)-1H-pyrazolo[4,3-b]pyridine], in series [1] (setting [8]), the area under the curve AUC(0-t) was determined as 1570 ng·h/mL, the Cmax turned out to be 186 ng/mL, the Tmax amounted to 2 h and the half-life is 4 h. Moreover, in series [1] (setting [8]), the AUC(0-inf) is 1610 ng·h/mL and the MRT inf stood at 5.6 h. In series [2], this molecule registered an IC50 of 9.7 nM. The same molecule gave an IC50 in series [3] of 10.6 nM. The same molecule gave a half-inhibitory concentration (IC50) in series [4] of 76.3 nM. In addition, in series [5], the IC50 came to 31.4 nM.
`C[C@@H](Oc1ccc2[nH]nc(-c3ccc(C4=CCS(=O)(=O)CC4)nc3)c2n1)c1c(Cl)cncc1Cl` [Cpd-02A, (R)-4-(5-(5-(1-(3,5-dichloropyridin-4-yl)ethoxy)-1H-pyrazolo[4,3-b]pyridin-3-yl)pyridin-2-yl)-3,6-dihydro-2H-thiopyran 1,1-dioxide]: the IC50 in series [2] was found to be 5.06 nM; in series [5] it was 23.9 nM.
Take `C[C@@H](Oc1ccc2[nH]nc(-c3cnc(C4=CCS(=O)(=O)CC4)c(F)c3)c2n1)c1c(Cl)cncc1Cl` [Cpd-03A, (R)-4-(5-(5-(1-(3,5-dichloropyridin-4-yl)ethoxy)-1H-pyrazolopyridin-3-yl)-3-fluoropyridin-2-yl)-3,6-dihydro-2H-thiapyran 1,1-dioxide]: in series [1], the area under the curve AUC(0-t) is 86.2 ng·h/mL, the maximum concentration (Cmax) came to 24.4 ng/mL, the time to peak (Tmax) amounted to 1 h and the half-life was 1.5 h. In series [1], the AUC(0-inf) came to 91.5 ng·h/mL and the MRT inf was found to be 2 h. In series [2], this molecule came in with a 50% inhibitory concentration (IC50) of 4.2 nM. The concentration for half-maximal inhibition (IC50) in series [3] stood at 8.4 nM. The molecule also registered a 50% inhibitory concentration (IC50) in series [4] of 33.8 nM. The molecule further returned an IC50 in series [5] of 14.2 nM.
Take `Cc1nn(CC(C)(C)O)c(C)c1-c1ncc(-c2n[nH]c3ccc(O[C@H](C)c4c(Cl)cncc4Cl)nc23)cc1F` [Cpd-161A, (R)-1-(4-(5-(5-(1-(3,5-dichloropyridin-4-yl)ethoxy)-1H-pyrazolo[4,3-b]pyridin-3-yl)-3-fluoropyridin-2-yl)-3,5-dimethyl-1H-pyrazol-1-yl)-2-methyl-2-propanol]: the IC50 amounted to 15.4 nM in series [2], 11.7 nM in series [3], 237 nM in series [4] and 98.3 nM in series [5].
Consider `CC(Oc1ccc2[nH]nc(-c3ccc(S(C)(=N)=O)nc3)c2n1)c1c(Cl)cncc1Cl` (single isomer, unassigned) [Cpd-01D, (5-(5-(1-(3,5-dichloropyridin-4-yl)ethoxy)-1H-pyrazolo[4,3-b]pyridin-3-yl)pyridin-2-yl)(imino)(methyl)-λ^6-sulfonyl ketone], for which the IC50 in series [6] stood at 6.2 nM; in series [7], 36.1 nM.
As to `C[C@@H](Oc1ccc2[nH]nc(-c3ccc(N4CCC(C(C)(C)O)CC4)nc3)c2n1)c1c(Cl)cncc1Cl` [Cpd-124A], the concentration for half-maximal inhibition (IC50) in series [2] is 13.6 nM; in series [3], 16.7 nM; in series [4], 80.4 nM; in series [5], 123 nM.
For `C[C@@H](Oc1ccc2[nH]nc(-c3ccc(N4CCN(S(C)(=O)=O)CC4)nc3)c2n1)c1c(Cl)cncc1Cl` [Cpd-119A], the results for the IC50 in series [2] and in series [5] were 7.3 nM and 45.9 nM, respectively.
